Experimental data from ChEMBL document CHEMBL1201862, “PubChem BioAssay data set” (2004).
Active and inactive are the calls of the source.

How the values were obtained:
[1] = biological target: Nuclear receptor subfamily 5 group A member 2 (Homo sapiens, UniProt O00482); format: functional, cell-based;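 also: HEK293T cells transfected with LRH-1 and a StAR promoter luciferase reporter; potency for inhibitors that lower LRH-1 driven reporter light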
Steroidogenic factor 1 = Steroidogenic factor 1 (Homo sapiens, UniProt Q13285); experiment: Counterscreen for inverse agonists of the liver receptor homolog-1 (LRH-1; NR5A2): Luminescence-based cell-based high throughput dose response assay to identify inverse agonists of the Steroidogenic Factor 1 Nuclear Receptor (SF1; NR5A1).; format: functional
Steroidogenic factor 1, sequence (Q13285 whole entry): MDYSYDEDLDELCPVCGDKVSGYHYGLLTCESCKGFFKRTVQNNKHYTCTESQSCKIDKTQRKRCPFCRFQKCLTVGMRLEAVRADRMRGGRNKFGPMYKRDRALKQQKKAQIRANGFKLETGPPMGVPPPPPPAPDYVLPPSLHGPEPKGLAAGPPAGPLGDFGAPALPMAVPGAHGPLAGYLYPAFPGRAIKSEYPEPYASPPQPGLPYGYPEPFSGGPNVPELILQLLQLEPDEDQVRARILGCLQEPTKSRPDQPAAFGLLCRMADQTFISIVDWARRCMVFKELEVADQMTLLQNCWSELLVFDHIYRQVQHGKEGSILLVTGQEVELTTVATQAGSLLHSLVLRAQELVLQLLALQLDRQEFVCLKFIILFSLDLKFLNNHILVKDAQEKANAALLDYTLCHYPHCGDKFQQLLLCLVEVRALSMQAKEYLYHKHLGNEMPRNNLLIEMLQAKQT

[2] = StAR promoter reporter inhibition counter-screen, dose response, counter-screen for LRH-1 inverse agonist project, cell-based, luminescence, luciferase reporter (AID 651969); format: functional
[3] = biological target: T1, Low molecular weight phosphotyrosine protein phosphatase (Homo sapiens, UniProt P24666); format: functional; settings: read-out: IC50_Mean;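 also: Dose-response confirmation assay measuring inhibition of LMPTP enzyme activity by fluorescence intensity read-out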
T1 sequence (P24666 whole entry): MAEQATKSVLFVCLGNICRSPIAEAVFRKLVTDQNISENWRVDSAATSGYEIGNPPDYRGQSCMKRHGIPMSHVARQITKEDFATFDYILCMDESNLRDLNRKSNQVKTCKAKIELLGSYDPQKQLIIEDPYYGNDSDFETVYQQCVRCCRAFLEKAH

[4] = biological target: Dual specificity tyrosine-phosphorylation-regulated kinase 1A (Rattus norvegicus, UniProt Q63470); format: biochemical, Homo sapiens
Fatty acid synthase [5] = biological target: T2, Fatty acid synthase (Homo sapiens, UniProt P49327); experiment: FAS thioesterase domain inhibitors, dose response, biochemical, endpoint fluorescence intensity, uHTS hits (AID 624327); format: functional;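 also: fluorescence from hydrolysis of an O-methyl fluorescein acyl ester substrate by the enzyme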
T2 sequence (P49327 whole entry, the tested form may be a part): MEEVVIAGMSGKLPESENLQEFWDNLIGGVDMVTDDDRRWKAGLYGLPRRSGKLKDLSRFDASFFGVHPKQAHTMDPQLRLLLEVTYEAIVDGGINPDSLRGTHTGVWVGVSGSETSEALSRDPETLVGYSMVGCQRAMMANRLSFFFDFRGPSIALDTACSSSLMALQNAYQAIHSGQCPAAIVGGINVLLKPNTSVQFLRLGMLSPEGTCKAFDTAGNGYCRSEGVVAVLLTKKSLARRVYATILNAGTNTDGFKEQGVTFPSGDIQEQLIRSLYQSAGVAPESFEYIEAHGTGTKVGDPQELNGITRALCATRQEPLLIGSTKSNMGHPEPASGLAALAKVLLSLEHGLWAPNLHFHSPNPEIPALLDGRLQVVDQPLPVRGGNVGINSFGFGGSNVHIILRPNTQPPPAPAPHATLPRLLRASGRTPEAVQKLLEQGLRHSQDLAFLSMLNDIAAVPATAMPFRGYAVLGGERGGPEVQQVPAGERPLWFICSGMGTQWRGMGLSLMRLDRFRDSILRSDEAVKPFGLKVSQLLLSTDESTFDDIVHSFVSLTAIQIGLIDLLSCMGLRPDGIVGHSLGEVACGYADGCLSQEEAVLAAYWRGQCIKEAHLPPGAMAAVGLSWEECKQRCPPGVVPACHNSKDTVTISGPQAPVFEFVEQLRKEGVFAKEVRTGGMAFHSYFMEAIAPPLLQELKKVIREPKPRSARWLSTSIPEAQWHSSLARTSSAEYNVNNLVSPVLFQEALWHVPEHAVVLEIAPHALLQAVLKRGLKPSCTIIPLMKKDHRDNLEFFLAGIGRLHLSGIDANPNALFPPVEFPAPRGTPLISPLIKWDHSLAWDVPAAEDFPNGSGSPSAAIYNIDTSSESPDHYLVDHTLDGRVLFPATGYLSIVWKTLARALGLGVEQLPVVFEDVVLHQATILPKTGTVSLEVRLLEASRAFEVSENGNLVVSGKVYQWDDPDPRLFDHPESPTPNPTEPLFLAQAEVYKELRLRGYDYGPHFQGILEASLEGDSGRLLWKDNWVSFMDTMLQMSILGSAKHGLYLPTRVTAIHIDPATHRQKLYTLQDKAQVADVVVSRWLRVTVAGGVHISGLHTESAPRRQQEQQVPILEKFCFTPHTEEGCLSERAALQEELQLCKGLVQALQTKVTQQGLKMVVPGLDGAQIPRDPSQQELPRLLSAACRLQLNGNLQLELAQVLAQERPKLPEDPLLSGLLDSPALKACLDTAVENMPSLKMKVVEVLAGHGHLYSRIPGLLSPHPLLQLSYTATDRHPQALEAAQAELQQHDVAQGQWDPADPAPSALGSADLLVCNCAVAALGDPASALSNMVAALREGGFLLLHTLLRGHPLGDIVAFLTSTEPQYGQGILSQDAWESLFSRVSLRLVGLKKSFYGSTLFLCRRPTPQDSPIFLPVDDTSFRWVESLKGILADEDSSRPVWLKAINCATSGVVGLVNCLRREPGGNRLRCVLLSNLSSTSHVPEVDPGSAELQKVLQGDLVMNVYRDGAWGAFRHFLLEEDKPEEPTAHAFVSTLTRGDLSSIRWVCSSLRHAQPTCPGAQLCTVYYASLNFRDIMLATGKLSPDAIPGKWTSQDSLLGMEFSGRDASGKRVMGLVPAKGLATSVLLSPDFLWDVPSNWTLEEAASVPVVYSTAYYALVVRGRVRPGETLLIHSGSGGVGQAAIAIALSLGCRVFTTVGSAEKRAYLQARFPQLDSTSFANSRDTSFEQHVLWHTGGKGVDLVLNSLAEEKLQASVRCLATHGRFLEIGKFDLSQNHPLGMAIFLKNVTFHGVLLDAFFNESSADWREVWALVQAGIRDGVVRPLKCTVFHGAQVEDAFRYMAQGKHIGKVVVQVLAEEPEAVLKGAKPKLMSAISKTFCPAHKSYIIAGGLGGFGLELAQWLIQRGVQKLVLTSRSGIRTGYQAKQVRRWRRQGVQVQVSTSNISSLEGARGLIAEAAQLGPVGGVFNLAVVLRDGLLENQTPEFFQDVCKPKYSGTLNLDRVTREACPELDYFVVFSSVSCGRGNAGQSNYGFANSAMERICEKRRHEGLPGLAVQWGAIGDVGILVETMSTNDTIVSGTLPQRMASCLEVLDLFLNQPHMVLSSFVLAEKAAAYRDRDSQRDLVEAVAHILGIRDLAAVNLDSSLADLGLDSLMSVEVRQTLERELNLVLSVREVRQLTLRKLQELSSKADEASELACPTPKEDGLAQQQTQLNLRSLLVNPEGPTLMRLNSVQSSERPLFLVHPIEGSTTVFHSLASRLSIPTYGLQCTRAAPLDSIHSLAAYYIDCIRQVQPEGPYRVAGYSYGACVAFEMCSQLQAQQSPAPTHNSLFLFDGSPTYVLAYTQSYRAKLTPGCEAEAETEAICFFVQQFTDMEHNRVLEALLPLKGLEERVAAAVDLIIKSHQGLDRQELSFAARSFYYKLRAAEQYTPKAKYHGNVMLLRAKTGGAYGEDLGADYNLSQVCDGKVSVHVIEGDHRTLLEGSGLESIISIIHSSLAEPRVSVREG

Fatty acid synthase [6] = biological target: T2, Fatty acid synthase; experiment: FAS thioesterase domain inhibitors, dose response, biochemical, kinetic fluorescence intensity (AID 624326); format: functional;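 also: rate of fluorescence rise from hydrolysis of a fluorogenic O-methyl fluorescein ester substrate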
[7] = NIH-3T3 fibroblast cytotoxicity, dose response, cytotoxicity control, cell-based, fluorescence, Alamar Blue, secondary assay (AID 2327); format: functional;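 also: NIH-3T3 mouse fibroblasts cultured with fluconazole at 8 µg/mL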
[8] = C. albicans growth with fluconazole, confirmation, fluorescence, retest (AID 2467); format: functional, cell-based
[9] = biological target: T3, Heat shock factor protein 1 (Mus musculus, UniProt P38532); experiment: HSF1 potentiators in luciferase reporter cells, confirmation, cell-based, NIH3T3, luminescence, dose retest (AID 435004); format: functional;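 also: stress induced by proteasome inhibitor MG132 added 30 min after compound; luciferase reporter driven by HSF1 response element in NIH3T3 cells; actives raise luminescence as potentiators of the MG132 stress response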
T3 sequence (P38532 whole entry): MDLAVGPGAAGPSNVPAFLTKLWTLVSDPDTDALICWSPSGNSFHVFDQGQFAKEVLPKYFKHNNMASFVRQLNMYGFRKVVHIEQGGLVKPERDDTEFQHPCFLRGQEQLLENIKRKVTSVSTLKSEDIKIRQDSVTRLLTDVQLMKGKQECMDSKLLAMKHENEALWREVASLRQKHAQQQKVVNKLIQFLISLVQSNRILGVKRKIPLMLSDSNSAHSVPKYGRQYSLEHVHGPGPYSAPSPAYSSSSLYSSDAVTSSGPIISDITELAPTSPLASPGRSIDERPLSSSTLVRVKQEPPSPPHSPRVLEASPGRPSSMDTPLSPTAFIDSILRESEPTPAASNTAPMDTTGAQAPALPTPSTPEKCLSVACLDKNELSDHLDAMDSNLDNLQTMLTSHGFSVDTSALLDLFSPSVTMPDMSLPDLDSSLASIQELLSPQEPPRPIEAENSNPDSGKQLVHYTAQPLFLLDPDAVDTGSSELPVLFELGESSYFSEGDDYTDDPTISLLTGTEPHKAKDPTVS

[10] = biological target: T4, RNA-binding protein pos-1 (Caenorhabditis elegans, UniProt G5EF15); experiment: inhibitors of POS-1/mex-3 RNA binding, dose response, biochemical, fluorescence polarization (AID 1964);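 also: purified POS-1 fused to maltose binding protein made in E. coli; potency of compounds blocking POS-1 binding to fluorescent RNA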
T4 sequence (G5EF15 whole entry): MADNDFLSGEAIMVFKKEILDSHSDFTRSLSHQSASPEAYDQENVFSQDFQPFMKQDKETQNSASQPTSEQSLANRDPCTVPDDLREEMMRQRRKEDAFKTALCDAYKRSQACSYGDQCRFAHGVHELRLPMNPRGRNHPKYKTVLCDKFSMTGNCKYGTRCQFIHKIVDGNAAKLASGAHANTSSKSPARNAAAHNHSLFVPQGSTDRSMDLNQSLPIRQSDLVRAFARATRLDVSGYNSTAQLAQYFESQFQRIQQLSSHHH

Large T antigen = Large T antigen (Simian virus 40, UniProt P03070); format: functional, Betapolyomavirus macacae;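 also: Confirmatory-stage PubChem screen for compounds that inhibit SV40 T antigen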
Large T antigen, sequence (P03070 whole entry): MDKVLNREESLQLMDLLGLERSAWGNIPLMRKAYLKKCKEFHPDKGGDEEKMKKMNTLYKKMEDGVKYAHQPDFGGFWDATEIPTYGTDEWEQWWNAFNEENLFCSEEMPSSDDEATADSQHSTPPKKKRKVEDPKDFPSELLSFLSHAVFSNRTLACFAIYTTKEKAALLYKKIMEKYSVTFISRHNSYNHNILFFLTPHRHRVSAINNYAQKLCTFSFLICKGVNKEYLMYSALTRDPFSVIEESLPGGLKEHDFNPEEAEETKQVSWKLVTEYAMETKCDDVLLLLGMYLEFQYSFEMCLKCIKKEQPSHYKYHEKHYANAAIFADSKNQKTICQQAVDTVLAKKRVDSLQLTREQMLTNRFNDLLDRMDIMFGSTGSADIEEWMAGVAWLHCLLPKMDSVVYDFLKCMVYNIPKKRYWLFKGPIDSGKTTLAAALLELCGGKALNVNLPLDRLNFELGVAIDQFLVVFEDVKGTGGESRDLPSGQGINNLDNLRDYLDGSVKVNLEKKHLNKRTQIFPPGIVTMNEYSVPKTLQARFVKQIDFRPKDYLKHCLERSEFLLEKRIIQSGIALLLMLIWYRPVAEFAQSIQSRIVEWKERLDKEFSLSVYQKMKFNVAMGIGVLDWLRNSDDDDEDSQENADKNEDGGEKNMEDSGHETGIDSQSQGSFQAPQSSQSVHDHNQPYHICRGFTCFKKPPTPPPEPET

[11] = biological target: Glucose-6-phosphate 1-dehydrogenase (Homo sapiens, UniProt P11413); experiment: human G6PD enzyme inhibitors, dose response, selectivity assay for P. falciparum G6PD inhibitor project, biochemical, fluorescence (AID 504792); format: functional
Glucose-6-phosphate 1-dehydrogenase, sequence (P11413 whole entry): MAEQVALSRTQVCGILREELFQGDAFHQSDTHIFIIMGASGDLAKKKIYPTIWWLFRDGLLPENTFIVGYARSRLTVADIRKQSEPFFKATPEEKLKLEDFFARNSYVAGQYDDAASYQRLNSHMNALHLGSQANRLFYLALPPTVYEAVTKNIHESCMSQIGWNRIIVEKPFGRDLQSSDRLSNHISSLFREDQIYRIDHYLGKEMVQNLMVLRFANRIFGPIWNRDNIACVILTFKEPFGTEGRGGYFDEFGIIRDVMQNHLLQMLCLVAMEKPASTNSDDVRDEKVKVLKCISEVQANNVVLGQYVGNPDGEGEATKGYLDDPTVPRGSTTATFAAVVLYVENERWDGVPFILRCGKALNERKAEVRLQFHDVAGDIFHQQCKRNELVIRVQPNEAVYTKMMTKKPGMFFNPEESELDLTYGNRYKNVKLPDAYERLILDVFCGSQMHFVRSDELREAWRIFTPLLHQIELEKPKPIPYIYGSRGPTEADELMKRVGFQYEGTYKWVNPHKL

[12] = biological target: T5, Zinc finger protein mex-5 (Caenorhabditis elegans, UniProt Q9XUB2); experiment: MEX-5/TCR-2 RNA interaction inhibitors, dose response, biochemical, C. elegans, fluorescence polarization (AID 1960)
T5 sequence (Q9XUB2 whole entry): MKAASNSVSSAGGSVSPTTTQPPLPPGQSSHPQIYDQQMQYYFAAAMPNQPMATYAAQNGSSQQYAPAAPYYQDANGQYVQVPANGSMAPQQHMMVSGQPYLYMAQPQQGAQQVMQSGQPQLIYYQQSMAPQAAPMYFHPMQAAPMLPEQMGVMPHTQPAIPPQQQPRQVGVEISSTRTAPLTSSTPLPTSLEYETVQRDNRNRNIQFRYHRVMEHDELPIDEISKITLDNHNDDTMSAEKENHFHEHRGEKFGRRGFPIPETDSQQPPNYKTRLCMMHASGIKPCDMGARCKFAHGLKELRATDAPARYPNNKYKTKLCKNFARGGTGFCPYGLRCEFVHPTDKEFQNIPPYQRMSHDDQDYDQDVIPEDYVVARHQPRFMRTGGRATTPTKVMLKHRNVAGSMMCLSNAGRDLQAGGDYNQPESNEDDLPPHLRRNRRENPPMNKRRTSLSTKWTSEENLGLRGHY

cells [13] = format: functional, cell-based
cells [14] = format: functional, cell-based; remark: listed apart in the source
[15] = ZM109 Env clade C HIV-1 fusion inhibitors, dose response, HeLa effector, CEM target cells, luciferase, cherry-pick (AID 652058); format: functional, cell-based
[16] = biological target: Eukaryotic translation initiation factor 4E (Mus musculus, UniProt P63073); experiment: eIF4E–eIF4G protein interaction inhibitors, dose response, biochemical, TR-FRET (AID 855); format: functional;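 also: potency for disrupting eIF4E binding to eIF4GI seen as loss of FRET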
Eukaryotic translation initiation factor 4E, sequence (P63073 whole entry): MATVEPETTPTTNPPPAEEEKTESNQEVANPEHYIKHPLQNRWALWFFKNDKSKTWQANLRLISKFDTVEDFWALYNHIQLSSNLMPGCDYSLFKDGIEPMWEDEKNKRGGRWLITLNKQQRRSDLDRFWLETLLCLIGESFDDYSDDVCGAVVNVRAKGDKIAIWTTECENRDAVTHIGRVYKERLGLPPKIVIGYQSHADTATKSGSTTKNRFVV

[17] = Shn3 3'UTR reporter inhibitors, dose response, cell-based, Clone20 osteoblasts, firefly luciferase, cherry-picked (AID 624132); format: functional;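 also: firefly luciferase luminescence from reporter carrying the Shn3 3'UTR in osteoblasts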
[18] = HepG2 cell cytotoxicity, dose response, cytotoxicity control for Shn3 inhibitor project, CellTiter-Glo, cherry-picked (AID 624134); format: functional, cell-based
[19] = control 3'UTR Renilla luciferase suppression, dose response, counter-screen for Shn3 inhibitor project, cell-based, Clone20-Shn3RL, cherry-picked (AID 624133); format: functional
[20] = HEp-2 cell cytotoxicity, dose response, cytotoxicity control for RSV inhibitor project, HTS (AID 2410); format: functional; settings: human respiratory syncytial virus
[21] = intracellular Trypanosoma cruzi inhibitors in host cells – cell-based, plate reader, cherry-pick samples, set 3, dose response (AID 651818); format: functional;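 also: compounds incubated with infected cells for about four days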
[22] = inhibitors of HIV Env-driven cell fusion, dose response, cherry-pick (AID 652057); format: functional, cell-based

Nuclear receptor subfamily 5 group A member 2, sequence (O00482 whole entry): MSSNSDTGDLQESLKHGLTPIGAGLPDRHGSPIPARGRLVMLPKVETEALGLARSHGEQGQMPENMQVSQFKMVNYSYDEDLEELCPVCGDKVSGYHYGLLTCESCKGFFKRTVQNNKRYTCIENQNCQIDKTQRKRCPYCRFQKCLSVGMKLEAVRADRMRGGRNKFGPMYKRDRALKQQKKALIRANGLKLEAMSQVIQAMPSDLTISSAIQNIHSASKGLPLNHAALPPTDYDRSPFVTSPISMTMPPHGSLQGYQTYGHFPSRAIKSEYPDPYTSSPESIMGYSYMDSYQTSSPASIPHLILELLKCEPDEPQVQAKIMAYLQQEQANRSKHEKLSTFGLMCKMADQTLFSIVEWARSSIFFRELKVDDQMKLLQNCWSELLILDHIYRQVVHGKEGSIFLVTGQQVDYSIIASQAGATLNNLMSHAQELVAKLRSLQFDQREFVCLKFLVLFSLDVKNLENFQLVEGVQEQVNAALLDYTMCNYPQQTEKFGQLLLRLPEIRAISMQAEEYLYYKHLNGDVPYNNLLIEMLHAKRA

CC(=O)Nc1ccc(NC(=O)CSc2nnnn2C2CCCCC2)cc1
IC50 [1]: 11.8 µM (inactive) | IC50 (Steroidogenic factor 1): 7.58 µM (active) | IC50 [2]: 35.9 µM (inactive)

O=C(Nc1cccc(-c2cn3ccccc3n2)c1)c1cc2ccccc2oc1=O
IC50 [3]: 7.49 µM (active)

O=C(Nc1cccc(-c2nn[nH]n2)c1)c1ccc(Br)s1
AC50 [4]: 0.875 µM (active)

CCn1c(=S)sc2c(=O)n(CC(=O)NC(C)CCc3ccccc3)c(C)nc21 (configuration not stated)
IC50 (Fatty acid synthase [5]): 9.52 µM (active) | IC50 (Fatty acid synthase [6]): 16.8 µM (active)

CC(C)(C)CC(=O)Nc1nnc(C(F)(F)F)s1
EC50 [7]: > 160 µM (inactive) | EC50 [8]: 0.13 µM (active)

C=CCn1c(O)c(N=NC(=S)Nc2ccc(OC)cc2)c2ccccc21
EC50 [7]: > 150 µM (inactive)

COc1ccc(-n2nc3c(N4CCC(C(=O)N5CCC(C)CC5)CC4)nnc(C)c3c2C)cc1
EC50 [7]: > 160 µM (inactive) | EC50 [9]: > 260 µM (inactive) | EC50 [8]: > 38 µM (not active)

CCCN1CCc2cc(O)cc3c2[C@H]1Cc1ccc(O)c(O)c1-3
EC50 [10]: > 300 µM (inconclusive) | IC50 (Large T antigen): 24 µM (active) | IC50 [11]: > 80 µM (inactive) | EC50 [12]: > 300 µM (inconclusive)

CCCn1c(SCC(=O)Nc2ccccc2CC)nnc1C(C)C
EC50 (cells [13]): > 350 µM (not active) | EC50 (cells [14]): > 350 µM (not active)

CCn1cc(C(=O)O)c(=O)c2cc(F)c(N3CCN(C(=S)NC(=O)c4ccc(F)cc4)CC3)cc21
IC50 [3]: 11.7 µM (active)

CCc1ccc(C(=O)CN2C(=O)NC(C)(c3ccc(C)cc3)C2=O)cc1 (configuration not stated)
AC50 [15]: 69 µM (active)

CC1CCN(C(=O)c2ccc3c(Cl)c4c(nc3c2)CCCC4)CC1
IC50 (Fatty acid synthase [5]): 5.24 µM (active) | IC50 (Fatty acid synthase [6]): 6.9 µM (active) | IC50 [16]: 50 µM (inactive)

Nc1nc(CN2CCN(c3ccccn3)CC2)nc(Nc2ccc(F)cc2)n1
EC50 [7]: > 150 µM (inconclusive) | EC50 [8]: > 38 µM (not active)

CN(C)c1ccc(NC(=O)C2C3C=CC(C3)C2C(=O)O)cc1 (configuration not stated)
EC50 [7]: > 160 µM (inactive) | EC50 [8]: > 38 µM (not active)

CCOC(=O)c1c(-c2ccccc2)oc2cc(CN(C)C)c(O)c(CN(C)C)c12
AC50 [17]: 7.81 µM (active) | AC50 [18]: 21.2 µM (active) | AC50 [19]: 5.5 µM (active) | EC50 (cells [13]): 28 µM (active) | EC50 (cells [14]): > 350 µM (not active)

Cc1cccc(CCNC(=O)Cn2ncc3c4cc(C)ccc4nc-3c2O)c1
EC50 (cells [13]): > 350 µM (not active) | EC50 (cells [14]): > 350 µM (not active)

CC(C)(C)c1ccc(/C=C2\CCn3c2nc2cc(C(=O)O)ccc2c3=O)cc1
IC50 (Fatty acid synthase [5]): 3.26 µM (active) | IC50 (Fatty acid synthase [6]): 3 µM (active)

NNc1nc2c(Cl)ccc(Cl)c2s1
AC50 [4]: 0.905 µM (active)

O=C(CCn1c(=O)c2ccccc2n(Cc2cccc([N+](=O)[O-])c2)c1=O)N1CCc2ccccc2C1
IC50 (Fatty acid synthase [5]): 1.26 µM (active) | IC50 (Fatty acid synthase [6]): 1.17 µM (active) | CC50 [20]: > 50 µM (active)

CCOc1ccc(OCCN2C(=O)NC(Cc3c[nH]c4ccccc34)C2=O)cc1 (configuration not stated)
IC50 [1]: 4.18 µM (active) | IC50 (Steroidogenic factor 1): 5.29 µM (active) | IC50 [2]: 35.9 µM (inactive)

COc1ccc(CCn2c(C)cc(C(=O)COC(=O)c3ccc(O)cc3O)c2C)cc1
IC50 [1]: 35.9 µM (inactive) | IC50 (Steroidogenic factor 1): 5.82 µM (active) | IC50 [2]: 35.9 µM (inactive)

COc1ccc(CCNC(=O)COC(=O)c2cc(Cl)nc(Cl)c2)cc1
IC50 [1]: 8.32 µM (active) | IC50 (Steroidogenic factor 1): 3.23 µM (active) | IC50 [2]: 35.9 µM (inactive)

Cc1ccc(NC(=O)CSc2nc3nc(O)cc(O)c3s2)c(Br)c1
IC50 [1]: 35.9 µM (inactive) | IC50 (Steroidogenic factor 1): 9.35 µM (active) | IC50 [2]: 35.9 µM (inactive)

CC(=O)Nc1cc(-c2ccc(S(C)(=O)=O)cc2)cn2c(-c3ccc(F)cc3)cnc12
IC50 [1]: 8.24 µM (active) | IC50 (Steroidogenic factor 1): 3.11 µM (active) | IC50 [2]: 23.7 µM (inactive)

C[C@H](CO)N1C[C@H](C)[C@@H](CN(C)Cc2ccc(C(F)(F)F)cc2)Oc2c(NC(=O)c3nc4ccccc4s3)cccc2C1=O
AC50 [21]: 1.05 µM (active)

Cc1ccc(S(=O)(=O)Nc2cccc3c2O[C@H](CN(C)Cc2ccc(C(=O)Nc4ccccc4N)cc2)[C@H](C)CN([C@H](C)CO)C3=O)cc1
AC50 [21]: 2.26 µM (active)

C[C@@H]1CCCCO[C@@H](CN(C)Cc2ccc(C(F)(F)F)cc2)[C@@H](C)CN([C@H](C)CO)C(=O)c2cc(NS(=O)(=O)c3ccc(Cl)cc3)ccc2O1
AC50 [21]: 3.01 µM (active)

C[C@H]1CN([C@@H](C)CO)C(=O)c2cccc(NS(=O)(=O)c3ccccc3)c2O[C@H]1CN(C)Cc1ccc(C(=O)Nc2ccccc2N)cc1
AC50 [21]: 3.48 µM (active)

C[C@@H]1CN([C@H](C)CO)C(=O)Cc2cc(NC(=O)Nc3ccc(C(F)(F)F)cc3)ccc2O[C@H]1CN(C)Cc1ccccc1
AC50 [21]: 4.06 µM (active)

C[C@@H]1CN([C@@H](C)CO)S(=O)(=O)c2ccc(C3=CCCC3)cc2O[C@@H]1CN(C)C(=O)C1CCOCC1
AC50 [15]: 10.2 µM (active) | AC50 [22]: 59 µM (active)

O=C(CCc1ccc(O)c(O)c1)N/N=C/c1cc2c(cc1[N+](=O)[O-])OCO2
EC50 [10]: 24 µM (active) | IC50 (Large T antigen): 13.8 µM (active) | IC50 [11]: > 80 µM (inactive) | EC50 [12]: 6.35 µM (active)
